Measurements as given in patent publication US20030072781A1, “Calcified tissue facing preparation containing antimicrobial agent” (Advantage Dental Products, Inc., priority 1998, published 2003).

Test system: Strept. mutans
Assay: Strept. mutans culture rinse, colony count
Type: cell-based
Settings: 30 second submersion, counted after 48 hours
Procedure: Standardized cultures of Strept. mutans are grown in petri dishes and subjected to 30 second submersion in 20 milliliters of various concentration rinses of aqueous chlorohexidine. A 0.04% chlorohexidine solution and water serve as controls. Thereafter, the petri dishes are incubated and colony members counted after 48 hours.

## [H]/N=C(\N/C(=N/[H])NCCCCCCNC(=N)NC(=N)Nc1ccc(Cl)cc1)Nc1ccc(Cl)cc1 [Chlorohexidine, chlorohexidine]
0.04 wt. % aqueous rinse (control)
  Colony Member After Rinse: 26
0.2 wt. % aqueous rinse
  Colony Member After Rinse: 0
0.5 wt. % aqueous rinse
  Colony Member After Rinse: 1
1.0 wt. % aqueous rinse
  Colony Member After Rinse: 1
2.0 wt. % aqueous rinse
  Colony Member After Rinse: 0
5.0 wt. % aqueous rinse
  Colony Member After Rinse: 2
10.0 wt. % aqueous rinse
  Colony Member After Rinse: 0
